Assay results as given in patent US9963455B2, “Pyrazolo[1,5-a]pyrimidines as antiviral compounds” (Curovir AB, priority 2014, dated 2018).

Tests used:
Porcine Tescho virus = experiment: microbe, parasite or virus in culture; type: cell-based; parameters: dose or concentration left out as unconfirmed; settings: Conc.; read-out: antiviral effect, PTV
[1] = test system: Human parechovirus strain 1; experiment: CPE inhibition in mammalian cell culture, HPeV-1; type: cell-based; settings: Parechovirus A; Conc. 10 µM; read-out: antiviral effect, HPeV-1
[2] = test system: coxsackie B virus strain 2; experiment: CPE inhibition in mammalian cell culture, Cox-B2; type: cell-based; settings: read-out: antiviral effect, B2
[3] = test system: coxsackie B virus strain 4; experiment: CPE inhibition in mammalian cell culture, Cox-B4; type: cell-based; settings: read-out: antiviral effect, B4
Enterovirus strain 71 = experiment: CPE inhibition in mammalian cell culture, EV71; type: cell-based; parameters: inhibition: dose or concentration left out as unconfirmed; settings: for inhibition: Conc., read-out: antiviral effect, EV71
Ljungan virus strain 145 = experiment: CPE inhibition in mammalian cell culture, LV145; type: cell-based; parameters: inhibition: dose or concentration left out as unconfirmed; settings: Parechovirus B; for inhibition: Conc., read-out: antiviral effect, LV145
[4] = test system: coxsackie B virus strain 5; experiment: CPE inhibition in mammalian cell culture, Cox-B5; type: cell-based; settings: read-out: antiviral effect, B5
Enterovirus strain 30 = experiment: CPE inhibition in mammalian cell culture, EV30; type: cell-based; settings: Conc. 10 µM, read-out: antiviral effect, EV30
[5] = test system: coxsackie B virus strain 1; experiment: CPE inhibition in mammalian cell culture, Cox-B1; type: cell-based; settings: read-out: antiviral effect, B1
Ljungan virus strain 012 = experiment: CPE inhibition in mammalian cell culture, LV012; type: cell-based; settings: Parechovirus B; Conc. 10 µM; read-out: antiviral effect, LV012
[6] = test system: encephalomyocarditis virus; experiment: CPE inhibition in mammalian cell culture, EMCV; type: cell-based; parameters: inhibition: dose or concentration left out as unconfirmed; settings: Cardiovirus A; Conc.; read-out: antiviral effect, EMCV
polio virus strain 1 = experiment: microbe, parasite or virus in culture; type: cell-based; settings: read-out: antiviral effect, Polio 1
[7] = test system: coxsackie B virus strain 3; experiment: CPE inhibition in mammalian cell culture, Cox-B3; type: cell-based; settings: read-out: antiviral effect, B3
Theiler = experiment: CPE inhibition in mammalian cell culture, Theiler; type: cell-based; settings: Conc. 10 μM
[8] = female Sprague Dawley rats, single dose
[9] = Sprague Dawley rats, 250 and 750 mg/kg body weight/day for 7 days
[10] = test system: Coxsackie B3 virus, Nancy strain; experiment: Anti-viral efficacy against Coxsackie virus in a neutropenic mouse model; type: in vivo, Male BALB/c mice; settings: neutropenic BALB/c mice, Coxsackie B3 i.p., 200 mg/kg once daily per orally from day 1 or day 3
Procedure: The FIGURE is a diagram showing the number of surviving animals as a function of the number of days after infections with Coxsackie B3 virus, in mice treated with the compound of Ex. 9, 200 mg/kg once daily per orally starting on day 1 (group 1) or on day 3 (group 2), and in mice treated with vehicle only (0.4% Tween 80, 2% glycerol and 15% β-hydroxypropyl cyclodextrin).
Evaluation of Anti-Viral Efficacy Against Coxsackie Virus in a Neutropenic Mouse Model Test System Male BALB/c mice, weighing 22-26 grams were used with 4 animals/group. Neutropenic induction: Cyclophosphamide Challenge organism: Coxsackie (human origin) virus CVB3 Route of infection: Intraperitoneal Route of administration: per oral End point: Cumulative survival
All experimental procedures involving animals were performed according to protocols approved by the Institutional Animal Ethics Committee of Anthem Biosciences. The mice, male BALB/c mice were housed 4 animals per cage and allowed access to feed and water ad libitum under controlled conditions. Mice were acclimatized for 7 days prior to the study. The animals were observed daily for general health during this period. […]
The animals were observed daily during the study period for signs of mortality, morbidity (paralysis) and signs of acute toxicity. Abnormal clinical signs were recorded if observed.

| SMILES | inhibition (Porcine Tescho virus) | inhibition at 10 µM [1] | inhibition at 10000 µM [2] | inhibition at 10000 µM [3] | inhibition (Enterovirus strain 71) | inhibition (Ljungan virus strain 145) | inhibition at 10000 µM [4] | inhibition at 10 µM (Enterovirus strain 30) | inhibition at 10000 µM [5] | inhibition at 10 µM (Ljungan virus strain 012) | inhibition [6] | inhibition at 10000 µM (polio virus strain 1) | also measured |
| --- | --- | --- | --- | --- | --- | --- | --- | --- | --- | --- | --- | --- | --- |
| COc1ccc(-c2c(C)nn3c(NCc4ccc(C)cc4)cc(C)nc23)cc1OC [Ex. 6, 3-(3,4-dimethoxyphenyl)-2,5-dimethyl-N-(p-tolylmethyl)pyrazolo[1,5-a]pyrimidin-7-amine] | 62% | 60% | 82% | 69% | 37% | 63% | 54% | 44% | 35% | 28% | 0% | 19% | inhibition at 5 µM (Ljungan virus strain 145; LV145, Conc. 5.0 μM): 56% |
| CC(C)c1cc(NCc2ccccc2)n2ncc(-c3ccccc3)c2n1 [Ex. 4, N-benzyl-5-isopropyl-3-phenyl-pyrazolo[1,5-a]pyrimidin-7-amine] | 87% | 7% | 0% | 53% | 69% | 61% | 0% | 0% | 36% | 28% | 81% | 17% | inhibition at 2.5 µM (Enterovirus strain 71; EV71, Conc. 2.5 μM): 46%; inhibition at 10000 µM [7]: 0% |
| Cc1cc(NCc2ccc(F)cc2)n2nc(C)c(-c3ccc(C(F)(F)F)cc3)c2n1 [Ex. 104, N-[(4-fluorophenyl)methyl]-2,5-dimethyl-3-[4-(trifluoromethyl)phenyl]pyrazolo[1,5-a]pyrimidin-7-amine] | – | – | – | – | – | – | – | – | – | – | – | – | inhibition at 10 µM (Theiler): 59% |
| COc1ccc(-c2c(C)nn3c(NCC(C)c4ccccc4)cc(C)nc23)cc1OC (stereo not shown) [Ex. 10, 3-(3,4-dimethoxyphenyl)-2,5-dimethyl-N-(2-phenylpropyl)pyrazolo[1,5-a]pyrimidin-7-amine] | 43% | 3% | 97% | 94% | 58% | 41% | 92% | 88% | 79% | 0% | 25% | – | inhibition at 2.5 µM (Ljungan virus strain 145; LV145, Conc. 2.5 μM): 69% |
| COc1ccc(-c2c(C)nn3c(NCc4ccc(F)cc4)cc(C)nc23)cc1OC [Ex. 9, 3-(3,4-dimethoxyphenyl)-N-[(4-fluorophenyl)methyl]-2,5-dimethyl-pyrazolo[1,5-a]pyrimidin-7-amine] | 23% | 19% | 76% | 48% | 16% | 59% | 73% | 35% | 53% | 18% | 14% | 91% | maximum tolerable dose [8]: > 2000 mg/kg body weight; adverse clinical signs or mortality (BALB/C mice, 200 and 400 mg/kg body weight/day for 7 days): did not reveal any adverse clinical signs or mortality; No Observed Adverse Effect Level (NOAEL) (mouse, in vivo, po): 400 mg/kg body weight/day; inhibition at 0.25 µM (Enterovirus strain 71; EV71, Conc. 0.25 μM): 93%; adverse clinical signs and mortality [9]: adverse clinical signs in both sexes at 750 mg/kg and mortality in one female at 750 mg/kg; Cumulative survival [10]: has an antiviral effect in vivo and can extend the life of the animals |
